The test deals with T1, ASCT2 (alanine serine cysteine transporter 2) (Rattus norvegicus, UniProt D3ZJ25).
T1 sequence (D3ZJ25 1-555): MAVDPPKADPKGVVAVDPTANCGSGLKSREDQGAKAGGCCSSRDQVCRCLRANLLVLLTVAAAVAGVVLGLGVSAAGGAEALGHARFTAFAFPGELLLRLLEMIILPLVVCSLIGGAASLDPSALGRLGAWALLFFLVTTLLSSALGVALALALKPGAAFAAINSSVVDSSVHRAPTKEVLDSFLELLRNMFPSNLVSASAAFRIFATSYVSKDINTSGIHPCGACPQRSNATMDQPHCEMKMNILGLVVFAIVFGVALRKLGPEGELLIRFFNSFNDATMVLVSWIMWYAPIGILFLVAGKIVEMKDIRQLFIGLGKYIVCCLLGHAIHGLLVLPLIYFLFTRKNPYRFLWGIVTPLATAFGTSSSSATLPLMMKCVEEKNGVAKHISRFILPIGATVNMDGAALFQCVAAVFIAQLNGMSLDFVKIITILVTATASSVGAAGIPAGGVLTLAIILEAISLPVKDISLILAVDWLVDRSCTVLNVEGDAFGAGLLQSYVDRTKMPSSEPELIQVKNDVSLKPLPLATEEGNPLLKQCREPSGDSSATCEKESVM
Briefly: whole-cell voltage clamp: alanine-induced anion currents. In kind it is cell-based.

Consider `C[C@H](N)C(=O)O` [alanine], for which the Km (commonly the substrate concentration at which the rate is half of its maximum) was 160 ± 50 µM.

Source of the values: paper PMC3664696 (The Journal of General Physiology, 2013).
